# Measurements as given in paper PMC5218480 (PLoS ONE, 2017).
# Tested on: MV-4-11 cells
# Test: Gene expression microarray analysis (Affymetrix PrimeView) and GSEA
# Type: cell-based, human
# Design: RFU PODN (11730768_x_at) / Fold change /veh PODN (11730768_x_at) / RFU LINC00158 (11744669_a_at) / Fold change /veh LINC00158 (11744669_a_at) / RFU DUSP10 (11751237_a_at) / Fold change /veh DUSP10 (11751237_a_at) / RFU ID3 (11757404_x_at) / Fold change /veh ID3 (11757404_x_at) / RFU PLEKHG5 (11737974_s_at) / Fold change /veh PLEKHG5 (11737974_s_at) / RFU LRRC4B (11730491_at) / Fold change /veh LRRC4B (11730491_at) / RFU GIMAP4 (11747438_a_at) / Fold change /veh GIMAP4 (11747438_a_at) / RFU KRT8 (11758183_x_at) / Fold change /veh KRT8 (11758183_x_at) / RFU CNN1 (11734310_a_at) / Fold change /veh CNN1 (11734310_a_at) / RFU VPS37D (11726825_at) / Fold change /veh VPS37D (11726825_at) / RFU C10orf10 (11716522_x_at) / Fold change /veh C10orf10 (11716522_x_at) / RFU KIR2DL2 /// KIR2DL4 /// KIR2DL5A /// KIR2DL5B /// KIR2DS1 /// KIR2DS2 /// KIR2DS3 /// KIR2DS4 /// KIR3DL3 /// KIR3DL3 /// KIR3DS1 (11738374_at) / Fold change /veh KIR2DL2 /// KIR2DL4 /// KIR2DL5A /// KIR2DL5B /// KIR2DS1 /// KIR2DS2 /// KIR2DS3 /// KIR2DS4 /// KIR3DL3 /// KIR3DL3 /// KIR3DS1 (11738374_at) / RFU C1QL1 (11718748_at) / Fold change /veh C1QL1 (11718748_at) / RFU TMPRSS4 (11747572_a_at) / Fold change /veh TMPRSS4 (11747572_a_at) / RFU HAMP (11756126_x_at) / Fold change /veh HAMP (11756126_x_at) / RFU RNFT2 (11725882_a_at) / Fold change /veh RNFT2 (11725882_a_at) / RFU NR4A2 (11747474_a_at) / Fold change /veh NR4A2 (11747474_a_at) / RFU ABCC12 (11746883_a_at) / Fold change /veh ABCC12 (11746883_a_at) / RFU TMEM136 (11760407_x_at) / Fold change /veh TMEM136 (11760407_x_at) / RFU CLDN22 /// WWC2 (11732394_at) / Fold change /veh CLDN22 /// WWC2 (11732394_at) / RFU HLA-DPB1 (11760878_x_at) / Fold change /veh HLA-DPB1 (11760878_x_at) / RFU SPINT1 (11716480_a_at) / Fold change /veh SPINT1 (11716480_a_at) / RFU GAP43 (11754022_s_at) / Fold change /veh GAP43 (11754022_s_at) / RFU A4GNT (11735810_at) / Fold change /veh A4GNT (11735810_at) / RFU PRB3 (11715151_x_at) / Fold change /veh PRB3 (11715151_x_at) / RFU TUBB4B (11761932_at) / Fold change /veh TUBB4B (11761932_at) / RFU CAPN14 (11732068_a_at) / Fold change /veh CAPN14 (11732068_a_at) / RFU TMCC2 (11721928_a_at) / Fold change /veh TMCC2 (11721928_a_at) / RFU IRGQ (11745062_a_at) / Fold change /veh IRGQ (11745062_a_at) / RFU FAM174B (11720279_a_at) / Fold change /veh FAM174B (11720279_a_at) / RFU TMPRSS4 (11748680_a_at) / Fold change /veh TMPRSS4 (11748680_a_at) / RFU FAM212B (11763350_a_at) / Fold change /veh FAM212B (11763350_a_at) / RFU PLEKHG5 (11743358_a_at) / Fold change /veh PLEKHG5 (11743358_a_at) / RFU ZSCAN30 (11745921_a_at) / Fold change /veh ZSCAN30 (11745921_a_at) / RFU CMKLR1 (11741424_a_at) / Fold change /veh CMKLR1 (11741424_a_at) / RFU LOC101060620 /// MAPK8IP1 (11723275_at) / Fold change /veh LOC101060620 /// MAPK8IP1 (11723275_at) / RFU SPTSSB (11747773_x_at) / Fold change /veh SPTSSB (11747773_x_at) / RFU PRSS12 (11739890_at) / Fold change /veh PRSS12 (11739890_at) / RFU BIN1 (11741810_x_at) / Fold change /veh BIN1 (11741810_x_at) / RFU WNT11 (11732464_a_at) / Fold change /veh WNT11 (11732464_a_at) / RFU C10orf10 (11716521_a_at) / Fold change /veh C10orf10 (11716521_a_at) / RFU C5orf56 (11738089_at) / Fold change /veh C5orf56 (11738089_at) / RFU CYB561 (11721691_x_at) / Fold change /veh CYB561 (11721691_x_at) / RFU ANKRD19P (11752326_a_at) / Fold change /veh ANKRD19P (11752326_a_at) / RFU OR2T12 /// OR2T33 /// OR2T8 (11738714_s_at) / Fold change /veh OR2T12 /// OR2T33 /// OR2T8 (11738714_s_at) / RFU VCAN (11748164_a_at) / Fold change /veh VCAN (11748164_a_at) / RFU JSRP1 (11732532_at) / Fold change /veh JSRP1 (11732532_at) / RFU KRTAP10-11 (11738290_x_at) / Fold change /veh KRTAP10-11 (11738290_x_at) / RFU MYO3A (11730013_a_at) / Fold change /veh MYO3A (11730013_a_at) / RFU EBF3 (11725865_a_at) / Fold change /veh EBF3 (11725865_a_at) / RFU CAMK2N1 (11719241_x_at) / Fold change /veh CAMK2N1 (11719241_x_at) / RFU C5orf56 (11738088_a_at) / Fold change /veh C5orf56 (11738088_a_at) / RFU OLFML3 (11715873_a_at) / Fold change /veh OLFML3 (11715873_a_at) / RFU LOC100653217 /// NTM (11731650_a_at) / Fold change /veh LOC100653217 /// NTM (11731650_a_at) / RFU MAPK11 (11762145_a_at) / Fold change /veh MAPK11 (11762145_a_at) / RFU FIZ1 (11724087_x_at) / Fold change /veh FIZ1 (11724087_x_at) / RFU OASL (11726364_x_at) / Fold change /veh OASL (11726364_x_at) / RFU SOX15 (11748057_x_at) / Fold change /veh SOX15 (11748057_x_at) / RFU CD79A (11719716_a_at) / Fold change /veh CD79A (11719716_a_at) / RFU HIST1H1D (11736915_at) / Fold change /veh HIST1H1D (11736915_at) / RFU CASKIN2 (11723855_a_at) / Fold change /veh CASKIN2 (11723855_a_at) / RFU LOC730098 (11760151_x_at) / Fold change /veh LOC730098 (11760151_x_at) / RFU OR4N2 (11742367_at) / Fold change /veh OR4N2 (11742367_at) / RFU PRRT2 (11749266_a_at) / Fold change /veh PRRT2 (11749266_a_at) / RFU SNX32 (11753110_a_at) / Fold change /veh SNX32 (11753110_a_at) / RFU CDHR5 (11726645_a_at) / Fold change /veh CDHR5 (11726645_a_at) / RFU RCAN1 (11760418_a_at) / Fold change /veh RCAN1 (11760418_a_at) / RFU FAM167A (11723789_a_at) / Fold change /veh FAM167A (11723789_a_at) / RFU FAM26E (11764081_at) / Fold change /veh FAM26E (11764081_at) / RFU ISYNA1 (11749810_s_at) / Fold change /veh ISYNA1 (11749810_s_at) / RFU ACY1 (11761880_at) / Fold change /veh ACY1 (11761880_at) / RFU 11764098_at / Fold change /veh 11764098_at / RFU SAMD14 (11745864_x_at) / Fold change /veh SAMD14 (11745864_x_at) / RFU NPB (11741838_a_at) / Fold change /veh NPB (11741838_a_at) / RFU TMPRSS6 (11731388_a_at) / Fold change /veh TMPRSS6 (11731388_a_at) / RFU KRTAP10-2 (11738614_at) / Fold change /veh KRTAP10-2 (11738614_at) / RFU ARHGAP8 /// PRR5-ARHGAP8 (11727945_x_at) / Fold change /veh ARHGAP8 /// PRR5-ARHGAP8 (11727945_x_at) / RFU KRTAP5-7 /// NADSYN1 (11734609_at) / Fold change /veh KRTAP5-7 /// NADSYN1 (11734609_at) / RFU RASL12 (11751679_a_at) / Fold change /veh RASL12 (11751679_a_at) / RFU CDKN2B (11736163_a_at) / Fold change /veh CDKN2B (11736163_a_at) / RFU PRF1 (11729649_at) / Fold change /veh PRF1 (11729649_at) / RFU, ZNF638 /// ZNF638-IT1 / Fold change vs veh, ZNF638 /// ZNF638-IT1 / RFU, PANK3 / Fold change vs veh, PANK3 / RFU, SH3YL1 / Fold change vs veh, SH3YL1 / RFU, ZEB2 / Fold change vs veh, ZEB2 / RFU, NRIP1 / Fold change vs veh, NRIP1 / RFU, PTTG1IP / Fold change vs veh, PTTG1IP / RFU, CAPN2 / Fold change vs veh, CAPN2 / RFU, MED14 / Fold change vs veh, MED14 / RFU, SNORA58 / Fold change vs veh, SNORA58 / RFU, C1orf63 / Fold change vs veh, C1orf63 / RFU, LRRFIP1 / Fold change vs veh, LRRFIP1 / RFU, NDUFAF7 / Fold change vs veh, NDUFAF7 / RFU, SLC12A2 / Fold change vs veh, SLC12A2 / RFU, IBTK / Fold change vs veh, IBTK / RFU, ESF1 / Fold change vs veh, ESF1 / Fold change vs veh, TMEM50B / RFU, TAOK1 / Fold change vs veh, TAOK1 / RFU, ACBD3 / Fold change vs veh, ACBD3 / RFU, TMA16 / Fold change vs veh, TMA16 / RFU, RWDD3 / Fold change vs veh, RWDD3 / RFU, BCAT1 / Fold change vs veh, BCAT1 / RFU, EDEM3 / Fold change vs veh, EDEM3 / RFU, TMEM33 / Fold change vs veh, TMEM33 / RFU, WDR75 / Fold change vs veh, WDR75 / RFU, AHCTF1 / Fold change vs veh, AHCTF1 / RFU, TFRC / Fold change vs veh, TFRC / RFU, ZDHHC17 / Fold change vs veh, ZDHHC17 / RFU, NOM1 / Fold change vs veh, NOM1 / RFU, ARL8B / Fold change vs veh, ARL8B / RFU, ZBTB11 / Fold change vs veh, ZBTB11 / RFU, TAMM41 / Fold change vs veh, TAMM41 / RFU, KIAA1704 /// LOC100996395 / Fold change vs veh, KIAA1704 /// LOC100996395 / RFU, ING1 / Fold change vs veh, ING1 / RFU, TRMT61B / Fold change vs veh, TRMT61B / RFU, FUBP3 / Fold change vs veh, FUBP3 / RFU, TP53 / Fold change vs veh, TP53 / RFU, TNKS2 / Fold change vs veh, TNKS2 / RFU, ZFP14 / Fold change vs veh, ZFP14 / RFU, ACTR2 / Fold change vs veh, ACTR2 / RFU, PPP3R1 / Fold change vs veh, PPP3R1 / RFU, PIK3R1 / Fold change vs veh, PIK3R1 / RFU, HNRNPA1 / Fold change vs veh, HNRNPA1 / RFU, RNF170 / Fold change vs veh, RNF170 / RFU, ZNF28 / Fold change vs veh, ZNF28 / RFU, RNGTT / Fold change vs veh, RNGTT / RFU, OGT / Fold change vs veh, OGT / RFU, BRD1 / Fold change vs veh, BRD1 / RFU, MARS / Fold change vs veh, MARS / RFU, ZNF655 / Fold change vs veh, ZNF655 / RFU, FAHD1 / Fold change vs veh, FAHD1 / RFU, BDP1 / Fold change vs veh, BDP1 / RFU, LRRCC1 / Fold change vs veh, LRRCC1 / RFU, ARID1A / Fold change vs veh, ARID1A / RFU, ZNF146 / Fold change vs veh, ZNF146 / RFU, ZNF330 / Fold change vs veh, ZNF330 / RFU, GPN3 / Fold change vs veh, GPN3 / RFU, C9orf123 / Fold change vs veh, C9orf123 / RFU, N4BP2L2 / Fold change vs veh, N4BP2L2 / RFU, ARFIP1 / Fold change vs veh, ARFIP1 / RFU, FAM179B / Fold change vs veh, FAM179B / RFU, BCL10 / Fold change vs veh, BCL10 / RFU, UHRF1BP1L / Fold change vs veh, UHRF1BP1L / RFU, BET1 / Fold change vs veh, BET1 / RFU, CNOT2 / Fold change vs veh, CNOT2 / RFU, ZNF268 / Fold change vs veh, ZNF268 / Fold change vs veh, ZNF507 / RFU, DGCR2 / Fold change vs veh, DGCR2 / RFU, WDSUB1 / Fold change vs veh, WDSUB1 / Fold change vs veh, HSP90B1 /// MIR3652 / RFU, ADSS / Fold change vs veh, ADSS / RFU, GK / Fold change vs veh, GK / RFU, ZNF148 / Fold change vs veh, ZNF148 / RFU, TAF9 / Fold change vs veh, TAF9 / RFU, SLC1A5 / Fold change vs veh, SLC1A5 / RFU, SLMO2 / Fold change vs veh, SLMO2 / RFU, ABCC4 / Fold change vs veh, ABCC4 / RFU, LOC101060439 /// RAP1B / Fold change vs veh, LOC101060439 /// RAP1B / RFU, RFX7 / Fold change vs veh, RFX7 / RFU, GTPBP10 / Fold change vs veh, GTPBP10 / RFU, CNEP1R1 / Fold change vs veh, CNEP1R1 / RFU, BIVM-ERCC5 /// ERCC5 / Fold change vs veh, BIVM-ERCC5 /// ERCC5 / RFU, ILF3 / Fold change vs veh, ILF3 / RFU 11762660_at / Fold change /veh 11762660_at / RFU VCAN (11757783_s_at) / Fold change /veh VCAN (11757783_s_at) / RFU DDX43 (11728927_at) / Fold change /veh DDX43 (11728927_at) / RFU KRT8 (11758188_x_at) / Fold change /veh KRT8 (11758188_x_at) / RFU NKD1 (11759106_at) / Fold change /veh NKD1 (11759106_at) / RFU SRD5A1 (11742802_a_at) / Fold change /veh SRD5A1 (11742802_a_at) / RFU TPSAB1 /// TPSB2 (11721975_s_at) / Fold change /veh TPSAB1 /// TPSB2 (11721975_s_at) / RFU GSTM3 (11746129_a_at) / Fold change /veh GSTM3 (11746129_a_at) / RFU IL23R (11737362_x_at) / Fold change /veh IL23R (11737362_x_at) / RFU TMEM51 (11727254_a_at) / Fold change /veh TMEM51 (11727254_a_at) / RFU PIWIL2 (11732686_x_at) / Fold change /veh PIWIL2 (11732686_x_at) / RFU ORM1 (11744905_x_at) / Fold change /veh ORM1 (11744905_x_at) / RFU CCDC152 (11743942_at) / Fold change /veh CCDC152 (11743942_at) / RFU ECM1 (11717891_a_at) / Fold change /veh ECM1 (11717891_a_at) / RFU IL23R (11748794_a_at) / Fold change /veh IL23R (11748794_a_at) / RFU TNFAIP8L3 (11732012_x_at) / Fold change /veh TNFAIP8L3 (11732012_x_at) / RFU MBOAT4 (11741988_at) / Fold change /veh MBOAT4 (11741988_at) / RFU 11764193_at / Fold change /veh 11764193_at / RFU TMEM53 (11763286_at) / Fold change /veh TMEM53 (11763286_at) / RFU MAGEB2 (11727129_at) / Fold change /veh MAGEB2 (11727129_at) / RFU TMEM200A (11744735_a_at) / Fold change /veh TMEM200A (11744735_a_at) / RFU CCDC152 (11751479_a_at) / Fold change /veh CCDC152 (11751479_a_at) / RFU FAM211A (11726209_a_at) / Fold change /veh FAM211A (11726209_a_at) / RFU RGS16 (11746705_a_at) / Fold change /veh RGS16 (11746705_a_at) / RFU VCAN (11755009_s_at) / Fold change /veh VCAN (11755009_s_at) / RFU RHOB (11743442_s_at) / Fold change /veh RHOB (11743442_s_at) / RFU RGS16 (11720943_a_at) / Fold change /veh RGS16 (11720943_a_at) / RFU RGS16 (11720944_at) / Fold change /veh RGS16 (11720944_at) / RFU, VPS4B / Fold change vs veh, VPS4B / RFU, CREB1 / Fold change vs veh, CREB1 / RFU, DNAJC13 / Fold change vs veh, DNAJC13 / RFU, GNAQ / Fold change vs veh, GNAQ / RFU, CDK5R1 / Fold change vs veh, CDK5R1 / RFU, ZRANB3 / Fold change vs veh, ZRANB3 / RFU, CUL4A / Fold change vs veh, CUL4A / RFU, CCNY / Fold change vs veh, CCNY / RFU, UFL1 / Fold change vs veh, UFL1 / RFU, COG3 / Fold change vs veh, COG3 / RFU, DIAPH2 / Fold change vs veh, DIAPH2 / RFU, SKA2 / Fold change vs veh, SKA2 / RFU, AFF3 / Fold change vs veh, AFF3 / RFU, LMF1 / Fold change vs veh, LMF1 / RFU, IPO11 / Fold change vs veh, IPO11 / RFU, DFFB / Fold change vs veh, DFFB / RFU, FOXP1 / Fold change vs veh, FOXP1 / RFU, CARD8 / Fold change vs veh, CARD8 / RFU, STRN3 / Fold change vs veh, STRN3 / RFU, ADK / Fold change vs veh, ADK / RFU, RASSF2 / Fold change vs veh, RASSF2 / RFU, WIPF1 / Fold change vs veh, WIPF1 / RFU, LARP1B / Fold change vs veh, LARP1B / RFU, RASA1 / Fold change vs veh, RASA1 / RFU, RB1 / Fold change vs veh, RB1 / RFU, PPFIA1 / Fold change vs veh, PPFIA1 / RFU, MAT2A / Fold change vs veh, MAT2A / RFU, CCT5 / Fold change vs veh, CCT5 / RFU, WDR92 / Fold change vs veh, WDR92 / RFU, CUX1 / Fold change vs veh, CUX1 / RFU, TTC7A / Fold change vs veh, TTC7A / RFU, TMEM135 / Fold change vs veh, TMEM135 / RFU, DEPTOR / Fold change vs veh, DEPTOR / RFU, CPM / Fold change vs veh, CPM / RFU, DNAJB6 / Fold change vs veh, DNAJB6 / RFU, CACNA2D3 / Fold change vs veh, CACNA2D3 / RFU, DTX4 / Fold change vs veh, DTX4 / RFU, TFCP2 / Fold change vs veh, TFCP2 / RFU, GMCL1 /// GMCL1P1 / Fold change vs veh, GMCL1 /// GMCL1P1 / RFU, AEBP2 / Fold change vs veh, AEBP2 / RFU, SNHG1 /// SNORD22 /// SNORD25 /// SNORD26 /// SNORD27 /// SNORD28 /// SNORD29 /// SNORD31 / Fold change vs veh, SNHG1 /// SNORD22 /// SNORD25 /// SNORD26 /// SNORD27 /// SNORD28 /// SNORD29 /// SNORD31 / Fold change (Aza/veh), C12orf56 (ProbeSet 11735607_a_at) / Fold change (ACY-1035/veh), C12orf56 (ProbeSet 11735607_a_at) / Fold change (Aza/veh), FGFR1OP (ProbeSet 11751329_s_at) / Fold change (ACY-1035/veh), FGFR1OP (ProbeSet 11751329_s_at) / Fold change (Aza/veh), VPS36 (ProbeSet 11739960_a_at) / Fold change (ACY-1035/veh), VPS36 (ProbeSet 11739960_a_at) / RFU SYPL1 (11715823_x_at) / Fold change /veh SYPL1 (11715823_x_at) / RFU IGFBP7 (11715501_s_at) / Fold change /veh IGFBP7 (11715501_s_at) / RFU REEP3 (11722064_at) / Fold change /veh REEP3 (11722064_at) / RFU IGLL1 (11728026_x_at) / Fold change /veh IGLL1 (11728026_x_at): dose or concentration left out as unconfirmed
# Details: MV-4-11 cells, 48 hours
smiles,measurement,value
Nc1ncn([C@@H]2O[C@H](CO)[C@@H](O)[C@H]2O)c(=O)n1 [azacitidine],RFU MAGEB2 (11727129_at),14.25 RFU
